Data on 46 compounds can be found in BindingDB's records for doi:10.7270/Q2TX3CTT (Broad Institute, 2010).

Usually EC50 stands for the midpoint of the concentration-response curve. The low end stands for a more potent agent, the high end for a less potent agent.

A value given as a limit tells only on which side of the number the result lay.

The target in the assay is Glycogen synthase kinase-3 beta (Homo sapiens, UniProt P49841). Briefly: GSK3beta kinase inhibitor potency, dose response, biochemical, luminescence, cell-free homogeneous, retest (AID 434954).
Chain of Glycogen synthase kinase-3 beta (P49841 whole entry): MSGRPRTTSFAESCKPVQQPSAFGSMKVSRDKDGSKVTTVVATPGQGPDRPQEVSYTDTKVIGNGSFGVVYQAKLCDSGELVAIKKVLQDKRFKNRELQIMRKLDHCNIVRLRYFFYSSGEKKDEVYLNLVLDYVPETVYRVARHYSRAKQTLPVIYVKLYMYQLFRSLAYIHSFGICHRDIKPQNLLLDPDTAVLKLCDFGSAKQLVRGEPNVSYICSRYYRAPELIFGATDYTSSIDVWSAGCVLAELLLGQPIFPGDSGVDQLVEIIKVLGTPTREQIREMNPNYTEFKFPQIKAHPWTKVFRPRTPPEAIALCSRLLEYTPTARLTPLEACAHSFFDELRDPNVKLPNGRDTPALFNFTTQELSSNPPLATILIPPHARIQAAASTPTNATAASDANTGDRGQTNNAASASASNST
The compound `Cc1ccnc(SCCn2c(N3CCOCC3)nc3c2c(=O)[nH]c(=O)n3C)n1` [3-methyl-7-[2-(4-methylpyrimidin-2-yl)sulfanylethyl]-8-morpholin-4-ylpurine-2,6-dione] gave an EC50 above 300 µM.
Compound `CSc1ncc(C(=O)Nc2ccccc2C)c(C)n1` came in with an EC50 above 300 µM.
In the case of `COC1=CC(CN=Nc2ccc([N+](=O)[O-])cn2)C=C(OC)C1=O` [MLS001173549] it was 5.41 µM; in that of `Cn1c(SCc2nnc(-c3ccc(F)cc3)o2)nnc1C1COc2ccccc2O1` (stereo unspecified) [MLS000098636], 221 µM; in that of `CCOCCOC(=O)c1ccc(-n2cnc(C)n2)nc1` [SMR000337218], above 300 µM.
In turn, `COc1ccc(C(=O)OCCc2sc[n+](CC(=O)c3ccccc3)c2C)cc1` [4-methoxybenzoic acid 2-(4-methyl-3-phenacyl-5-thiazol-3-iumyl)ethyl ester;bromide] gave an EC50 of 26 µM.
The value for `CC1=NC(=O)NC(c2ccccc2OC(F)F)C1C(=O)OCc1ccccc1` (stereo unspecified) was 4.4 µM; that for `COCCN1C(=O)N[C@@H](c2cccc(C(F)(F)F)c2)[C@H](C(C)=O)[C@H]1C` [(4R,5S,6R)-5-acetyl-1-(2-methoxyethyl)-6-methyl-4-[3-(trifluoromethyl)phenyl]-1,3-diazinan-2-one] was above 300 µM.
`COc1ccc(Nc2nc(N)nc(CSc3nnc(C)s3)n2)cc1` [MLS000527270] gave an EC50 of 82 µM.
Turning to `Cc1ccc(N2CC(C(=O)NCCCn3ccnc3)CC2=O)cc1` (stereo unspecified) [MLS000069041], the EC50 is above 300 µM.
As to `COCCNc1nc(SC)nc2sc3c(c12)CCN(C)C3` [N-(2-methoxyethyl)-7-methyl-2-methylsulfanyl-6,8-dihydro-5H-pyrido[4,5]thieno[1,2-c]pyrimidin-4-amine], the EC50 is 198 µM.
Take `O=C(Nc1ccc(Cl)c(Cl)c1)Nc1ccccn1` [SMR000515062]: the response was half-maximal at 47.2 µM (EC50).
`Cc1ccc(C(=O)c2coc3ccc(O)c(CN(C)C)c23)cc1` [(4-Dimethylaminomethyl-5-hydroxy-benzofuran-3-yl)-p-tolyl-methanone] yielded an EC50 above 300 µM.
In the case of `COc1ccc(OC)c(C(O)c2coc3ccc(O)c(CN(C)C)c23)c1` (stereo unspecified) it was above 300 µM; in that of `Cc1cc(Cl)nc(Cl)c1C(=O)N1CCOCC1` [SMR000307050], above 300 µM.
`Nc1nc(Nc2ccccc2)sc1C(=O)c1ccccc1` [(4-azanyl-2-phenylazanyl-1,3-thiazol-5-yl)-phenyl-methanone] displayed an EC50 of 0.171 µM.
`Cc1ccc(Nc2nc(NCCCN3CCOCC3)nc(N)c2[N+](=O)[O-])cc1C` [SMR000219808] gave an EC50 above 300 µM.
In the case of `CCCCOc1ccc(C=NNC(=O)c2nnn(-c3nonc3N)c2CN2CCCCCC2)cc1` [1-(4-amino-1,2,5-oxadiazol-3-yl)-5-(1-azepanylmethyl)-N-[(4-butoxyphenyl)methylideneamino]-4-triazolecarboxamide] it was 55.3 µM; in that of `Cc1cc(NC(=O)CSc2nc(O)c(C#N)c(-c3ccccc3)n2)no1` [2-[(5-cyano-4-oxidanylidene-6-phenyl-1H-pyrimidin-2-yl)sulfanyl]-N-(5-methyl-1,2-oxazol-3-yl)ethanamide], above 300 µM; in that of `Fc1ccc(CSc2nnc(-c3cccs3)o2)cc1` [SMR000003242], above 300 µM.
For the compound `CC(=O)COc1cc(C)cc2oc(=O)cc(-c3ccccc3)c12`, the EC50 is above 300 µM.
In the case of `Cc1ccc(C)c(S(=O)(=O)N2CCN(C(C(=O)Nc3ccc(F)cc3)c3ccccc3)CC2)c1` (stereo unspecified) [2-[4-(2,5-dimethylphenyl)sulfonyl-1-piperazinyl]-N-(4-fluorophenyl)-2-phenylacetamide] it was above 300 µM; in that of `COc1ccc(-c2nc(-c3ccccc3)nc(Cl)c2C#N)cc1` [4-chloranyl-6-(4-methoxyphenyl)-2-phenyl-pyrimidine-5-carbonitrile], above 300 µM; in that of `COc1ccccc1-c1ccc(=O)n(CC(=O)NCc2ccco2)n1` [N-(furan-2-ylmethyl)-2-[3-(2-methoxyphenyl)-6-oxidanylidene-pyridazin-1-yl]ethanamide], above 300 µM.
In the case of `c1cncc(-c2nc(NCc3cccs3)c3ccccc3n2)c1` it was above 300 µM; in that of `Clc1nccc(NCc2ccccc2)n1` [N-benzyl-N-(2-chloropyrimidin-4-yl)amine], above 300 µM.
`CCc1nnc(NC(=O)c2ccc3c(=O)n4c(nc3c2)CCCCC4)s1` [MLS001007070] gave an EC50 above 300 µM.
`O=C1N=C(NCc2ccccc2)SC1=Cc1ccc(O)cc1` [SMR000217101] displayed an EC50 of 3.04 µM.
In turn, `CCOC(=O)c1c(C)oc2c(CC(=O)c3ccccc3)c(Cl)c(O)c(O)c12` [ethyl 6-chloro-4,5-dihydroxy-2-methyl-7-phenacyl-1-benzofuran-3-carboxylate] had an EC50 above 300 µM.
On to `O=C(Nc1ncc(Cc2ccccc2)s1)C1CCCO1` (stereo unspecified) [MLS000100685], for which the EC50 turned out to be 17.6 µM.
The compound `CC(=O)c1ccc(NC(=O)CN2C(=O)CCC2=O)cc1` [N-(4-acetylphenyl)-2-(2,5-dioxo-1-pyrrolidinyl)acetamide] registered a 50% effective concentration (EC50) above 300 µM.
Regarding `CC(O)c1cccc(NC2=CC(=O)CC(C)(C)C2)c1` (stereo unspecified), the EC50 was above 300 µM.
In the case of `CCOC(=O)CSc1ccc2nnc(-c3cccnc3)n2n1` [SMR000018940] it was above 300 µM.
In the case of `COCCn1nnnc1C(c1cc2cc(C)ccc2[nH]c1=O)N1CCc2ccccc21` (stereo unspecified) [SMR000122998] it was above 300 µM; in that of `COc1ccccc1C(=O)Oc1ccc(C(C)(C)C)cc1`, above 300 µM.
The compound `COc1cccc(C(=O)Nc2ccc(C(=O)NCC(C)C)cc2)c1` [SMR000292523] came in with an EC50 above 300 µM.
`O=C(c1ccc(Cl)cc1)c1coc2ccc(O)cc12` [(4-Chloro-phenyl)-(5-hydroxy-benzofuran-3-yl)-methanone] gave an EC50 of 13.4 µM.
Take `COc1ccc(C(=O)NCC(=O)NN=Cc2ccc(C)o2)cc1OC` [3,4-dimethoxy-N-(2-{2-[(5-methyl-2-furyl)methylene]hydrazino}-2-oxoethyl)benzamide]: the EC50 was above 300 µM.
`COc1cc(C=NNC(=O)COc2ccccc2[N+](=O)[O-])ccc1OC(=O)c1ccco1` [SMR000204365]: the 50% effective concentration (EC50) was above 300 µM.
Turning to `Cc1ccc(Nc2nc(NCC3CCCO3)nc(N)c2[N+](=O)[O-])cc1C` (stereo unspecified) [SMR000219669], the 50% effective concentration (EC50) was determined as 10.7 µM.
In the case of `CCC(C)Nc1nc(N)c([N+](=O)[O-])c(Nc2cc(OC)ccc2OC)n1` (stereo unspecified) [N2-butan-2-yl-N4-(2,5-dimethoxyphenyl)-5-nitro-pyrimidine-2,4,6-triamine], a half-maximal effect (EC50) was put at 0.539 µM.
In the case of `O=C(CSc1nnc(-c2ccncc2)o1)Oc1ccccc1` [SMR000006341] it was above 300 µM; in that of `O=C1Nc2ccccc2C1=NN1CCOCC1` [3-(morpholin-4-ylamino)indol-2-one], above 300 µM.
`NS(=O)(=O)c1ccc(N=Nc2cnc(O)c(O)c2)cc1` [4-[(5,6-dioxo-3-pyridinyl)hydrazo]benzenesulfonamide] had an EC50 above 300 µM.
On to `Oc1cc(SC(=Nc2ccccc2)Nc2ccccc2)c(O)n1-c1cccc2ccccc12` [MLS000558765], for which the EC50 was above 300 µM.
`COc1ccc(/C=C2/SC(NS(=O)(=O)Cc3ccccc3)=NC2=O)cc1OC` [N-[(5E)-5-[(3,4-dimethoxyphenyl)methylidene]-4-oxo-2-thiazolyl]-1-phenylmethanesulfonamide] yielded a half-maximal effective concentration (EC50) above 300 µM.
